Source: patent US8815774B2, “Herbicidal composition and method of use thereof” (Syngenta Crop Protection LLC, priority 2006, dated 2014)

Assays:
Format in all cases: in vivo
[1] = test system: Trifolium repens (white clover); experiment: Glasshouse trial, control of white clover, pre-emergence application
Protocol: (§1) A glasshouse trial was carried out. Large crabgrass seeds were sown into standard glasshouse potting mix (1:1 v/v Promix:Vero sand soil) contained in 10 cm square plastic pots. Treatments were replicated three times. Mesotrione (in the form Callisto® 480SE) was applied pre-emergence to large crabgrass (Digitaria sanguinalis) at either 12 g ai/ha or 24 g ai/ha with or without sulfentrazone (in the form Authority®). When used, sulfentrazone was applied at a rate of 140 g ai/ha or 280 g ai/ha. The adjuvant system was X-77 at 0.1% v/v in deionised water. 200 litres of herbicide/adjuvant system was used per hectare. General weed control was evaluated at 7 days after treatment (DAT). It is noted that all herbicides were applied at reduced field rates because herbicide effects are magnified in a glasshouse environment. Rates were chosen to give a 50 to 70% level of control with herbicides applied alone as this allows for detection of any synergistic effect when tank mixtures are used.
(§2) It is noted that control of large crabgrass with the higher rate of mesotrione alone was too high to allow for detection synergy when mesotrione was mixed with sulfentrazone. The lower rate of mesotrione was therefore used in this analysis. […] The results were evaluated using the Colby formula. The expected result for (A+B) is (A+B)−(A×B/100) where A and B are the ‘observed’ results for A and B on their own.
(§3) A glasshouse trial was set up as described in Example 1, except using carfentrazone instead of sulfentrazone, Trifolium repens (white clover) instead of large crabgrass, and different herbicide rates.

[2] = test system: Trifolium repens (white clover); experiment: Glasshouse trial, control of white clover, post-emergence application
Protocol: as §1, §2, §3
A glasshouse trial was set up as described in Example 2, except using applying the mixture post emergence rather than pre-emergence.

[3] = test system: large crabgrass (Digitaria sanguinalis); experiment: Glasshouse trial, control of large crabgrass, pre-emergence application
Protocol: as §1, with “used. It is noted that control of large crabgrass with the higher rate of mesotrione alone was too high to allow for detection synergy when mesotrione was mixed with sulfentrazone. The lower rate of mesotrione was therefore used in this analysis. […] The results were evaluated using the Colby formula. The expected result for (A+B) is (A+B)−(A×B/100) where A and B are the ‘observed’ results for A and B on their own.” for “used.”

[4] = carfentrazone 18 g ai/ha plus mesotrione 25 g ai/ha
[5] = carfentrazone 18 g ai/ha plus mesotrione 50 g ai/ha
[6] = carfentrazone 36 g ai/ha plus mesotrione 25 g ai/ha
[7] = carfentrazone 36 g ai/ha plus mesotrione 50 g ai/ha
[8] = carfentrazone 18 g ai/ha plus mesotrione 100 g ai/ha
[9] = carfentrazone 18 g ai/ha plus mesotrione 150 g ai/ha
[10] = carfentrazone 36 g ai/ha plus mesotrione 100 g ai/ha
[11] = carfentrazone 36 g ai/ha plus mesotrione 150 g ai/ha

Compound	Actual control, Plus Mesotrione at 25 g ai/ha [1, 4]	Expected control, Plus Mesotrione at 25 g ai/ha [1, 4]	Actual control, Plus Mesotrione at 50 g ai/ha [1, 5]	Expected control, Plus Mesotrione at 50 g ai/ha [1, 5]	Actual control, Plus Mesotrione at 25 g ai/ha [1, 6]	Expected control, Plus Mesotrione at 25 g ai/ha [1, 6]	Actual control, Plus Mesotrione at 50 g ai/ha [1, 7]	Expected control, Plus Mesotrione at 50 g ai/ha [1, 7]	Actual control, Plus Mesotrione at 100 g ai/ha [2, 8]	Expected control, Plus Mesotrione at 100 g ai/ha [2, 8]	Actual control, Plus Mesotrione at 150 g ai/ha [2, 9]	Expected control, Plus Mesotrione at 150 g ai/ha [2, 9]	Actual control, Plus Mesotrione at 100 g ai/ha [2, 10]	Expected control, Plus Mesotrione at 100 g ai/ha [2, 10]	Actual control, Plus Mesotrione at 150 g ai/ha [2, 11]	Expected control, Plus Mesotrione at 150 g ai/ha [2, 11]	synergy (Colby formula and Student-Newman-Keuls multiple range test) ([3]; mesotrione 12 g ai/ha with sulfentrazone 140 g ai/ha)	Expected control (Colby formula), Plus Mesotrione at 12 g ai/ha ([3]; sulfentrazone 140 g ai/ha plus mesotrione 12 g ai/ha, 7 DAT)	Actual control, Plus Mesotrione at 12 g ai/ha ([3]; sulfentrazone 140 g ai/ha tank mixed with mesotrione 12 g ai/ha, 7 DAT)	control of large crabgrass, herbicide on its own ([3]; sulfentrazone alone (lower rate, 140 g ai/ha), 7 DAT) [%]
Cc1nn(-c2cc(CC(Cl)C(=O)O)c(Cl)cc2F)c(=O)n1C(F)F (centres unmarked) [Carfentrazone]	55	50	75	62	73	49	85	61	70	43	93	65	72	53	93	71				
Cc1nn(-c2cc(NS(C)(=O)=O)c(Cl)cc2Cl)c(=O)n1C(F)F [Sulfentrazone, 2′,4′-dichloro-5′-(4-difluoromethyl-4,5-dihydro-3-methyl-5-oxo-1H-1,2,4-triazol-1-yl)methanesulfonanilide]																	synergy was seen	87.0	100	75
